Source: patent publication US4221805A, “Method of inducing platelet antiaggregation activity” (priority 1978, dated 1980)

How the values were obtained:
stomach (gastric lesion) = assay: Ulcerogenic activity in rats after prolonged administration; format: in vivo, male albino rats, Wistar strain
Procedure: The ulcerogenic activity of MRAP2 was tested both after a single administration of the drug, and after prolonged administration. In these tests, a total of 70 male albino rats of Wistar strain were used, having a weight of 200±20 grams. The MRAP2 was administered diluted in tap water. The points given for gastric ulcerative lesions were as follows: (0) no lesion; (1) hyperaemia or slight capillary obstruction; or slight loss of the epithelium; or some petechiae even with pale mucosa without hyperaemia; (2) diffuse capillary obstructions or numerous petechiae; or diffuse loss of the epithelium; of a few surface lesions; (3) strong submucosa haemorrhage; or many petechiae and small surface lesions; or much anaemic mucosa (yellowish colour); or up to three small ulcers; (4) general pattern as in the previous numbers, plus up to ten small ulcers; or long erosions; or up to three medium sized ulcers; (5) pattern as in number 4, with up to 15 small ulcers; or up to 6 large ulcers; (6) pattern as previously, with up to ten large ulcers, plus small ulcers; (7) pattern as previously, plus up to ten large ulcers and small ulcers; cases of perforated ulcers. 30 Rats were divided into three batches of ten animals each, and subjected daily over a period of six days to the following oral treatment: 1st group: controls 2nd group: MRAP2 (50 mg/kg) 3rd group: MRAP2 (125 mg/kg) Six hours after the last treatment, the animals were killed and the lesion index was evaluated following the techniques and methods previously described.

mice = assay: Acute toxicity in mice, endoperitoneal administration (LD50); format: in vivo; details: 20 animals per dose
Procedure: (§1) A total of 240 albino mice, 120 male and 120 female, of the Swiss strain and having an average weight of about 20 grams were used. The animals were divided into groups of 10 animals each, and kept caged for some days in an environment at a constant temperature (21°±1° C.) and humidity (60±5%). They were then fasted for 24 hours before the experiment, but were given free access to water.
(§2) The substance indicated by MRAP2 was administered, in a single administration, either orally or endoperitoneally. The LD50 was evaluated for each of the administration methods, using the method of Litchfield and Wilcoxon, J.Pharmacology, 96, 99, […], based on the mortality recorded for each group of mice over the seven days following administration.
(§3) Six groups of 20 animals, 10 male and 10 female, which had been given the active principle dissolved in a physiological solution were used.

[1] = as above; format: in vivo; details: mouse, in vivo, ip
Procedure: as §1, §2, §3

[2] = test system: cardiovascular system of cats; assay: Effect on the cardiovascular system of cats; format: in vivo; details: intravenous 5 mg/kg
Procedure: Three cats weighing 2.4-2.6 kg were used for this test. The MRAP2 was administered intravenously in a dose of 5 mg/kg, carried in a sterile physiological solution. The animals, under combined anaesthesia with ethylurethane and diallylbarbituric acid, were subjected to measurements, by means of the Battaglia-Rangoni polygraph, of the arterial pressure, the cardiac frequency, the nictitation and the electrocardiac activity, before and up to two hours after the administration of the drug.

rats = assay: Acute toxicity in rats, oral administration (LD50); format: in vivo; details: 20 animals per dose
Procedure: (§4) 200 albino rats, 100 male and 100 female, of the Wistar strain and weighing 130-150 grams were divided into groups of 10 animals each.
(§5) After being caged for some days at constant temperature (21°±1° C.) and humidity (60±5%), the animals were fasted for 24 hours before treatment.
(§6) The MRAP2 was administered in a single administration either orally or endoperitoneally, following the method heretofore described.
(§7) Teh LD50 was evaluated for each method of administration using the Litchfield and Wilcoxon method, based on the percentage mortality recorded in each group of rats during the seven days following treatment.
(§8) Five groups of 20 animals, 10 male and 10 female were used.

[3] = Acute toxicity in rats, oral administration (LD50); format: in vivo; details: rat, in vivo
Procedure: as §4, §5, §6, §7, §8

Cl.Clc1ccccc1CN1CCCC1 [MRAP2, N-(2-chlorobenzyl)-pyrrolidine hydrochloride]
Average degree of lesion ± E.E. (stomach (gastric lesion); oral 50 mg/kg daily for six days, scale 0-7, controls 0.57 ± 0.1): 0.86 ± 0.2
Average degree of lesion ± E.E. (stomach (gastric lesion); oral 125 mg/kg daily for six days, scale 0-7, controls 0.57 ± 0.1, P <0.05 with regard to controls): 1.07 ± 0.2
ulcerogenic activity (in words) (stomach (gastric lesion); oral daily for six days): significant only at a dose of 125 mg/kg, but even then only slight
No. of animals dead (mice; 75 mg/kg): 0
No. of animals dead (mice; 100 mg/kg): 2
No. of animals dead (mice; 150 mg/kg): 18
No. of animals dead (mice; 200 mg/kg): 20
No. of animals dead (mice; 300 mg/kg): 20
No. of animals dead (mice; 400 mg/kg): 20
mortality at 168 h ([1]; 75 mg/kg): 0%
mortality at 168 h ([1]; 100 mg/kg): 10%
mortality at 168 h ([1]; 150 mg/kg): 90%
mortality at 168 h ([1]; 200 mg/kg): 100%
mortality at 168 h ([1]; 300 mg/kg): 100%
mortality at 168 h ([1]; 400 mg/kg): 100%
LD50 at 168 h ([1]; single administration, 7 days, 95% limits 105-130): 116 mg/kg
hypertensive effect ([2]; in the four minutes following introduction of the drug): slight hypertensive effect
undesirable effects on the cardiovascular system ([2]; up to two hours): does not give rise to any undesirable effects on the cardiovascular system
No. of animals dead (rats; 400 mg/kg): 0
No. of animals dead (rats; 500 mg/kg): 4
No. of animals dead (rats; 600 mg/kg): 8
No. of animals dead (rats; 800 mg/kg): 15
No. of animals dead (rats; 1000 mg/kg): 20
mortality at 168 h ([3]; 400 mg/kg): 0%
mortality at 168 h ([3]; 500 mg/kg): 20%
mortality at 168 h ([3]; 600 mg/kg): 40%
mortality at 168 h ([3]; 800 mg/kg): 75%
mortality at 168 h ([3]; 1000 mg/kg): 100%
LD50 at 168 h ([3]; single administration, 7 days, 95% limits 631-714): 675 mg/kg
